Data set [1] in a line: Octanol-water distribution coefficient (logD pH 7.4) of the labeled tracer. Conditions: n-octanol/PBS pH 7.4, room temperature. Format: physicochemical. Summed up:
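About 1 MBq tracer partitioned in 1:1 PBS pH 7.4/n-octanol, mixed 3 min at room temperature, centrifuged 15000 g for 5 min. Both layers counted by gamma counter; at least six repeats.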

Data set [2] has as its target HSA (Homo sapiens, UniProt P02768). As to the kind of experiment: HSA binding by RIAC method (gel filtration, apparent molecular weight). Conditions: HSA binding as apparent molecular weight, 700 μM HSA in PBS mobile phase. It is filed as in vitro ADME. As for the experimental part: A gel filtration column Superdex 75 Increase 10/300 GL (GE Healthcare, Uppsala, Sweden) was beforehand calibrated following the producer's recommendations with a commercially available gel filtration calibration kit (GE Healthcare, Buckinghamshire, UK) comprising conalbumin (MW: 75 kDa), ovalbumin (44 kDa), carbonic anhydrase (29 kDa), ribonuclease A (13.7 kDa) and aprotinin (6.5 kDa) as reference proteins of known molecular weight. AMSEC experiments were conducted using a constant flow rate of 0.8 mL/min at rt. A solution of HSA in PBS at physiological concentration (700 μM) was used as the mobile phase. SST2 ligands were labelled as described with molar activities of 10-20 GBq/μmol. Probes of 1.0 MBq of the radioligand were injected directly from the labelling solution. HSA binding was expressed as an apparent molecular weight MW calculated from the retention time of the radioligand using the determined calibration curve.
For evaluation, experimentally determined retention times tR are first converted into elution volumes Ve by multiplying with the flow rate and thereafter converted into partition coefficients Kav following the equation
where V0 is the column void volume (8.027 mL) and Vc is the geometric column volume (24 mL). Using the equation given by the trend line plot of the column calibration
the apparent molecular weight MW is calculated as […]
Background: In gel filtration, larger molecules generally elute earlier.

In data set [3] the target is T1, SST2 (Homo sapiens, UniProt P30874).
T1 construct: expressed in transfected cells; host or cells: CHO (Chinese hamster ovary) cells
The experiment in a line: Determination of IC50: competitive binding against [125I]TOC on SST2-transfected CHO cells. The note with it: [125I]TOC reference radioligand, 60 min room temperature.

Where a SMILES comes first, the peptide text is derived from it. Bridges are numbered along the chain shown (N, C = ends). [ ]: non-standard residue; d: D form. The star is where a group is joined. ξ: configuration not given here. X1 = CC(C)(C)[Si](F)(c1ccc(C[N+](C)(C)CC(=O)*)cc1)C(C)(C)C; DO3AM = NC(=O)CN1CCN(CC(N)=O)CCN(CC(=O)*)CCN(CC(N)=O)CC1; ξW = NC(Cc1c[nH]c2ccccc12)C(=O)O; dDap = NC[C@@H](N)C(=O)O; ξF = NC(Cc1ccccc1)C(=O)O; ξD = NC(CC(=O)O)C(=O)O; ξC = NC(CS)C(=O)O

T1 sequence (P30874 whole entry, species assumed): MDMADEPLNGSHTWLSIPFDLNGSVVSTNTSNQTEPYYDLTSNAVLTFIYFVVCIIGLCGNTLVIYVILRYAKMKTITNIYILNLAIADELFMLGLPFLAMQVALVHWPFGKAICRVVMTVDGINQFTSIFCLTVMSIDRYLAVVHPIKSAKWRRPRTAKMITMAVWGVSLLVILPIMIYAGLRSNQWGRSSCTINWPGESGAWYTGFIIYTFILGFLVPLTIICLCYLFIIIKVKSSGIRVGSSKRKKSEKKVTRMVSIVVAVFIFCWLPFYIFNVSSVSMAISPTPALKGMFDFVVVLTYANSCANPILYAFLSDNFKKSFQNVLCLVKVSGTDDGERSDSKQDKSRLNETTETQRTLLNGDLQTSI
Chain of HSA (P02768 25-609): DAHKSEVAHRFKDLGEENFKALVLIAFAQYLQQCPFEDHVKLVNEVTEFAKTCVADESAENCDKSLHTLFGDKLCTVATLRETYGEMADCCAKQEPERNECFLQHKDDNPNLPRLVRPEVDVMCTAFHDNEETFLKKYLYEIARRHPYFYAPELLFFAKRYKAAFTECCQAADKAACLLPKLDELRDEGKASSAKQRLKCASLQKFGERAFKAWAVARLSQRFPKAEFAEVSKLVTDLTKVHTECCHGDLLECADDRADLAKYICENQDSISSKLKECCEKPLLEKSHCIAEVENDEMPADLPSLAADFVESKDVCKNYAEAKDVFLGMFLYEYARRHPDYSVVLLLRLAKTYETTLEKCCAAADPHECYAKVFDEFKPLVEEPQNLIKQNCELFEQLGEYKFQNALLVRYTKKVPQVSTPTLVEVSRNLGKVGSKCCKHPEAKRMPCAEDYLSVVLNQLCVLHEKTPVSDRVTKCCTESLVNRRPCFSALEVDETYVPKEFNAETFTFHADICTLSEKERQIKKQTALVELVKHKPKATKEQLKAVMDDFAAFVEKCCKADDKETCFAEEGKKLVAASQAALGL

Usually IC50 stands for the concentration that gives 50% inhibition. High values mean lower potency, low ones higher potency. Turning to `C[C@@H](O)[C@H](NC(=O)C1CSSCC(NC(=O)C(Cc2ccccc2)NC(=O)CNC(=O)CNC(=O)[C@@H](CC(=O)O)NC(=O)C(CC(=O)O)NC(=O)[C@@H](CNC(=O)CN2CCN(CC(N)=O)CCN(CC(N)=O)CCN(CC(N)=O)CC2)NC(=O)C[N+](C)(C)Cc2ccc([Si](F)(C(C)(C)C)C(C)(C)C)cc2)C(=O)N[C@@H](Cc2ccc(O)cc2)C(=O)NC(Cc2c[nH]c3ccccc23)C(=O)N[C@@H](CCCCN)C(=O)N[C@@H]([C@@H](C)O)C(=O)N1)C(=O)O` (stereo partly drawn) [[Pb]38] (X1-[dDap](DO3AM)[ξD][dD]GG[ξF][ξC]Y[ξW]KT[ξC]T-OH; disulfide 7-12), the “LogDpH=7.4” value in data set [1] is listed as −1.95 ± 0.03. Besides, in data set [2], the HSA is given as 9.20 kDa. Besides, the IC50 in data set [3] was 4.67 ± 0.73 nM.
The matching figures for `C[C@@H](O)[C@H](NC(=O)C1CSSCC(NC(=O)C(Cc2ccccc2)NC(=O)CNC(=O)CNC(=O)CNC(=O)C(CC(=O)O)NC(=O)[C@@H](CC(=O)O)NC(=O)C(CNC(=O)CN2CCN(CC(=O)O)CCN(CC(=O)O)CCN(CC(=O)O)CC2)NC(=O)[C@@H](CN)NC(=O)c2ccc([Si](F)(C(C)(C)C)C(C)(C)C)cc2)C(=O)N[C@@H](Cc2ccc(O)cc2)C(=O)NC(Cc2c[nH]c3ccccc23)C(=O)N[C@@H](CCCCN)C(=O)N[C@@H]([C@@H](C)O)C(=O)N1)C(=O)O` (stereo partly drawn) (natGa complex, metal not drawn) [[Ga]40]: −2.24 ± 0.03, 19.25 kDa and 3.61 ± 0.29 nM.
For the compound `C[C@@H](O)[C@H](NC(=O)C1CSSCC(NC(=O)C(Cc2ccccc2)NC(=O)CNC(=O)CNC(=O)[C@@H](CC(N)=O)NC(=O)C(CC(N)=O)NC(=O)[C@@H](CNC(=O)CC[C@H](C(=O)O)N2CCN(CC(=O)O)CCN(CC(=O)O)CCN(CC(=O)O)CC2)NC(=O)C(CN)NC(=O)c2ccc([Si](F)(C(C)(C)C)C(C)(C)C)cc2)C(=O)N[C@@H](Cc2ccc(O)cc2)C(=O)NC(Cc2c[nH]c3ccccc23)C(=O)N[C@@H](CCCCN)C(=O)N[C@@H]([C@@H](C)O)C(=O)N1)C(=O)O` (stereo partly drawn) (natGa complex, metal not drawn) [[Ga]41], in data set [1], the “LogDpH=7.4” value is reported as −1.58 ± 0.05. Also, the HSA in data set [2] is listed as 15.48 kDa. For the same compound, the IC50 in data set [3] stood at 3.64 ± 0.64 nM.
The matching figures for `C[C@@H](O)[C@H](NC(=O)C1CSSCC(NC(=O)C(Cc2ccccc2)NC(=O)[C@@H](CC(N)=O)NC(=O)C(CC(N)=O)NC(=O)[C@@H](CC(=O)O)NC(=O)C(CC(=O)O)NC(=O)[C@@H](CNC(=O)CN2CCN(CC(=O)O)CCN(CC(=O)O)CCN(CC(=O)O)CC2)NC(=O)C(CN)NC(=O)c2ccc([Si](F)(C(C)(C)C)C(C)(C)C)cc2)C(=O)N[C@@H](Cc2ccc(O)cc2)C(=O)NC(Cc2c[nH]c3ccccc23)C(=O)N[C@@H](CCCCN)C(=O)N[C@@H]([C@@H](C)O)C(=O)N1)C(=O)O` (stereo partly drawn) (natGa complex, metal not drawn) [[Ga]42]: −2.41 ± 0.05, 17.97 kDa and 5.33 ± 0.78 nM.
Consider `C[C@@H](O)[C@H](NC(=O)C1CSSCC(NC(=O)C(Cc2ccccc2)NC(=O)CNC(=O)C(CC(=O)O)NC(=O)[C@@H](CC(=O)O)NC(=O)C(CNC(=O)CN2CCN(CC(=O)O)CCN(CC(=O)O)CCN(CC(=O)O)CC2)NC(=O)[C@@H](CN)NC(=O)c2ccc([Si](F)(C(C)(C)C)C(C)(C)C)cc2)C(=O)N[C@@H](Cc2ccc(O)cc2)C(=O)NC(Cc2c[nH]c3ccccc23)C(=O)N[C@@H](CCCCN)C(=O)N[C@@H]([C@@H](C)O)C(=O)N1)C(=O)O` (stereo partly drawn) (natGa complex, metal not drawn) [[Ga]39], for which the “LogDpH=7.4” value in data set [1] is recorded as −2.20 ± 0.05. Moreover, in data set [2], the HSA is on record as 24.96 kDa. The IC50 in data set [3] came to 14.9 ± 1.22 nM.
As for `C[C@@H](O)[C@H](NC(=O)C1CSSCC(NC(=O)C(Cc2ccccc2)NC(=O)[C@@H](CC(N)=O)NC(=O)C(CC(N)=O)NC(=O)[C@@H](CC(=O)O)NC(=O)C(CC(=O)O)NC(=O)[C@@H](CNC(=O)CN2CCN(CC(=O)O)CCN(CC(=O)O)CCN(CC(=O)O)CC2)NC(=O)C[N+](C)(C)Cc2ccc([Si](F)(C(C)(C)C)C(C)(C)C)cc2)C(=O)N[C@@H](Cc2ccc(O)cc2)C(=O)NC(Cc2c[nH]c3ccccc23)C(=O)N[C@@H](CCCCN)C(=O)N[C@@H]([C@@H](C)O)C(=O)N1)C(=O)O` (stereo partly drawn) [[Ga]48], the “LogDpH=7.4” value in data set [1] is given as −2.10 ± 0.05. Also, the HSA in data set [2] turned out to be 8.11 kDa.
Regarding `C[C@@H](O)[C@H](NC(=O)C1CSSCC(NC(=O)C(Cc2ccccc2)NC(=O)CNC(=O)CNC(=O)[C@@H](CC(=O)O)NC(=O)C(CC(=O)O)NC(=O)[C@@H](CNC(=O)CN2CCN(CC(=O)O)CCN(CC(=O)O)CCN(CC(=O)O)CC2)NC(=O)C(CN)NC(=O)c2ccc([Si](F)(C(C)(C)C)C(C)(C)C)cc2)C(=O)N[C@@H](Cc2ccc(O)cc2)C(=O)NC(Cc2c[nH]c3ccccc23)C(=O)N[C@@H](CCCCN)C(=O)N[C@@H]([C@@H](C)O)C(=O)N1)C(=O)O` (stereo partly drawn) [[Ga]19], in data set [1], the “LogDpH=7.4” value was −2.11 ± 0.04. In addition, the HSA in data set [2] is given as 21.17 kDa.
In the same order, the values of `C[C@@H](O)[C@H](NC(=O)C1CSSCC(NC(=O)C(Cc2ccccc2)NC(=O)CNC(=O)CNC(=O)CNC(=O)C(CC(=O)O)NC(=O)[C@@H](CC(=O)O)NC(=O)C(CNC(=O)C[N+](C)(C)Cc2ccc([Si](F)(C(C)(C)C)C(C)(C)C)cc2)NC(=O)CN2CCN(CC(=O)O)CCN(CC(=O)O)CCN(CC(=O)O)CC2)C(=O)N[C@@H](Cc2ccc(O)cc2)C(=O)NC(Cc2c[nH]c3ccccc23)C(=O)N[C@@H](CCCCN)C(=O)N[C@@H]([C@@H](C)O)C(=O)N1)C(=O)O` (stereo partly drawn) [[Ga]44] are −2.06 ± 0.08 and 6.99 kDa.
As for `C[C@@H](O)[C@H](NC(=O)C1CSSCC(NC(=O)C(Cc2ccccc2)NC(=O)CNC(=O)CNC(=O)[C@@H](CCCN)NC(=O)C(CCCN)NC(=O)[C@@H](CNC(=O)CC[C@H](C(=O)O)N2CCN(CC(=O)O)CCN(CC(=O)O)CCN(CC(=O)O)CC2)NC(=O)C(CN)NC(=O)c2ccc([Si](F)(C(C)(C)C)C(C)(C)C)cc2)C(=O)N[C@@H](Cc2ccc(O)cc2)C(=O)NC(Cc2c[nH]c3ccccc23)C(=O)N[C@@H](CCCCN)C(=O)N[C@@H]([C@@H](C)O)C(=O)N1)C(=O)O` (stereo partly drawn) (natGa complex, metal not drawn) [[Ga]37], the “LogDpH=7.4” value in data set [1] is −1.92 ± 0.04. Also, in data set [2], the HSA is given as 17.60 kDa. Besides, in data set [3], the IC50 was 4.66 ± 0.53 nM.

For the origin of these results see patent US20240317780A1, “RADIOPHARMACEUTICAL SOMATOSTATIN RECEPTOR LIGANDS AND PRECURSORS THEREOF” (Technische Universität München, priority 2021, published 2024).
